Source: PubChem BioAssay (NCI)
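Where inhibition never reached the appropriate level, the endpoint shown equals the highest concentration tested. Otherwise, values were interpolated linearly from a five-concentration, 48-hour dose response in 96-well plates. Definition used: TGI = concentration required for complete inhibition of growth.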

These compounds were tested on HCC-2998 colon (assay: NCI anticancer screen, dose series, 48 h).
`CCOC(=O)C(=O)/C(=C/n1c(=S)[nH]c2ccc([N+](=O)[O-])cc21)C(=O)OCC` gave a TGI greater than 100 µM.
In the case of `CCOC(=O)c1csc(NC(=O)CN(C)C)n1`, the TGI was greater than 100 µM.
For `CC1(CO)COC(C)(C)OC1`, the TGI was greater than 100 µM.
For `CC12CP(=O)(c3ccccc3)CC1c1ccccc1C2c1ccccc1` (centres undefined), the TGI was 33.9 µM.
`CN(C)/C=C1\CCc2ccc([N+](=O)[O-])cc2C1=O` was tested, and the TGI was greater than 100 µM.

Each compound was assayed on A549 NSCLC (assay: NCI anticancer screen, dose series, 48 h).
`CCOC(=O)C(=O)/C(=C/n1c(=S)[nH]c2ccc([N+](=O)[O-])cc21)C(=O)OCC` gave a TGI greater than 100 µM.
`CCOC(=O)c1csc(NC(=O)CN(C)C)n1` showed a TGI greater than 100 µM.
With `CC1(CO)COC(C)(C)OC1` the TGI was greater than 100 µM.
With `CC12CP(=O)(c3ccccc3)CC1c1ccccc1C2c1ccccc1` (centres undefined) the TGI was 36.2 µM.
With `CN(C)/C=C1\CCc2ccc([N+](=O)[O-])cc2C1=O` the TGI was greater than 100 µM.

What follows are compounds tested on SF-295 CNS (assay: NCI anticancer screen, dose series, 48 h).
Work on `CCOC(=O)C(=O)/C(=C/n1c(=S)[nH]c2ccc([N+](=O)[O-])cc21)C(=O)OCC` yielded a TGI greater than 100 µM.
Work on `CCOC(=O)c1csc(NC(=O)CN(C)C)n1` yielded a TGI greater than 100 µM.
For `CC1(CO)COC(C)(C)OC1`, the TGI was greater than 100 µM.
With `CC12CP(=O)(c3ccccc3)CC1c1ccccc1C2c1ccccc1` (centres undefined) the TGI was 29.8 µM.
`CN(C)/C=C1\CCc2ccc([N+](=O)[O-])cc2C1=O` was tested, and the TGI was greater than 100 µM.

These compounds were tested on HOP-62 NSCLC (assay: NCI anticancer screen, dose series, 48 h).
Compound `CCOC(=O)C(=O)/C(=C/n1c(=S)[nH]c2ccc([N+](=O)[O-])cc21)C(=O)OCC` has a TGI greater than 100 µM.
Compound `CCOC(=O)c1csc(NC(=O)CN(C)C)n1` has a TGI greater than 100 µM.
Work on `CC12CP(=O)(c3ccccc3)CC1c1ccccc1C2c1ccccc1` (centres undefined) yielded a TGI of 35.4 µM.
Compound `CN(C)/C=C1\CCc2ccc([N+](=O)[O-])cc2C1=O` has a TGI greater than 100 µM.

Each compound was assayed on UO-31 renal (assay: NCI anticancer screen, dose series, 48 h).
`CCOC(=O)C(=O)/C(=C/n1c(=S)[nH]c2ccc([N+](=O)[O-])cc21)C(=O)OCC` showed a TGI greater than 100 µM.
`CCOC(=O)c1csc(NC(=O)CN(C)C)n1` showed a TGI greater than 100 µM.
For `CC1(CO)COC(C)(C)OC1`, the TGI was greater than 100 µM.
`CC12CP(=O)(c3ccccc3)CC1c1ccccc1C2c1ccccc1` (centres undefined) gave a TGI of 30.4 µM.
Compound `CN(C)/C=C1\CCc2ccc([N+](=O)[O-])cc2C1=O` has a TGI greater than 100 µM.

Each compound was assayed on SW-620 colon (assay: NCI anticancer screen, dose series, 48 h).
In the case of `CCOC(=O)C(=O)/C(=C/n1c(=S)[nH]c2ccc([N+](=O)[O-])cc21)C(=O)OCC`, the TGI was greater than 100 µM.
In the case of `CCOC(=O)c1csc(NC(=O)CN(C)C)n1`, the TGI was greater than 100 µM.
In the case of `CC1(CO)COC(C)(C)OC1`, the TGI was greater than 100 µM.
For `CC12CP(=O)(c3ccccc3)CC1c1ccccc1C2c1ccccc1` (centres undefined), the TGI was 33.2 µM.
`CN(C)/C=C1\CCc2ccc([N+](=O)[O-])cc2C1=O` showed a TGI of 97.1 µM.

The compounds below were run on MDA-MB-435 (assay: NCI anticancer screen, dose series, 48 h).
With `CCOC(=O)C(=O)/C(=C/n1c(=S)[nH]c2ccc([N+](=O)[O-])cc21)C(=O)OCC` the TGI was greater than 100 µM.
`CCOC(=O)c1csc(NC(=O)CN(C)C)n1` showed a TGI greater than 100 µM.
For `CC1(CO)COC(C)(C)OC1`, the TGI was greater than 100 µM.
For `CC12CP(=O)(c3ccccc3)CC1c1ccccc1C2c1ccccc1` (centres undefined), the TGI was 30.1 µM.
Compound `CN(C)/C=C1\CCc2ccc([N+](=O)[O-])cc2C1=O` has a TGI of 34.8 µM.

The compounds below were run on OVCAR-3 ovarian (assay: NCI anticancer screen, dose series, 48 h).
In the case of `CCOC(=O)C(=O)/C(=C/n1c(=S)[nH]c2ccc([N+](=O)[O-])cc21)C(=O)OCC`, the TGI was greater than 100 µM.
For `CCOC(=O)c1csc(NC(=O)CN(C)C)n1`, the TGI was greater than 100 µM.
`CC1(CO)COC(C)(C)OC1` showed a TGI greater than 100 µM.
With `CC12CP(=O)(c3ccccc3)CC1c1ccccc1C2c1ccccc1` (centres undefined) the TGI was 31.7 µM.
`CN(C)/C=C1\CCc2ccc([N+](=O)[O-])cc2C1=O` gave a TGI of 41.2 µM.

These compounds were tested on MDA-MB-231 breast (assay: NCI anticancer screen, dose series, 48 h).
For `CCOC(=O)C(=O)/C(=C/n1c(=S)[nH]c2ccc([N+](=O)[O-])cc21)C(=O)OCC`, the TGI was greater than 100 µM.
Compound `CCOC(=O)c1csc(NC(=O)CN(C)C)n1` has a TGI greater than 100 µM.
`CC1(CO)COC(C)(C)OC1` was tested, and the TGI was greater than 100 µM.
Compound `CC12CP(=O)(c3ccccc3)CC1c1ccccc1C2c1ccccc1` (centres undefined) has a TGI of 40.1 µM.
For `CN(C)/C=C1\CCc2ccc([N+](=O)[O-])cc2C1=O`, the TGI was 43.8 µM.

These compounds were tested on OVCAR-5 ovarian (assay: NCI anticancer screen, dose series, 48 h).
`CCOC(=O)C(=O)/C(=C/n1c(=S)[nH]c2ccc([N+](=O)[O-])cc21)C(=O)OCC` was tested, and the TGI was greater than 100 µM.
`CCOC(=O)c1csc(NC(=O)CN(C)C)n1` gave a TGI greater than 100 µM.
`CC12CP(=O)(c3ccccc3)CC1c1ccccc1C2c1ccccc1` (centres undefined) showed a TGI greater than 100 µM.
Compound `CN(C)/C=C1\CCc2ccc([N+](=O)[O-])cc2C1=O` has a TGI greater than 100 µM.

These compounds were tested on HS 578T breast (assay: NCI anticancer screen, dose series, 48 h).
`CCOC(=O)C(=O)/C(=C/n1c(=S)[nH]c2ccc([N+](=O)[O-])cc21)C(=O)OCC` showed a TGI greater than 100 µM.
For `CCOC(=O)c1csc(NC(=O)CN(C)C)n1`, the TGI was greater than 100 µM.
For `CC1(CO)COC(C)(C)OC1`, the TGI was greater than 100 µM.
`CC12CP(=O)(c3ccccc3)CC1c1ccccc1C2c1ccccc1` (centres undefined) gave a TGI greater than 100 µM.
With `CN(C)/C=C1\CCc2ccc([N+](=O)[O-])cc2C1=O` the TGI was greater than 100 µM.

Each compound was assayed on OVCAR-4 ovarian (assay: NCI anticancer screen, dose series, 48 h).
With `CCOC(=O)C(=O)/C(=C/n1c(=S)[nH]c2ccc([N+](=O)[O-])cc21)C(=O)OCC` the TGI was greater than 100 µM.
`CCOC(=O)c1csc(NC(=O)CN(C)C)n1` was tested, and the TGI was greater than 100 µM.
`CC1(CO)COC(C)(C)OC1` gave a TGI greater than 100 µM.
`CN(C)/C=C1\CCc2ccc([N+](=O)[O-])cc2C1=O` showed a TGI of 34.2 µM.

These compounds were tested on MALME-3M melanoma (assay: NCI anticancer screen, dose series, 48 h).
Work on `CC12CP(=O)(c3ccccc3)CC1c1ccccc1C2c1ccccc1` (centres undefined) yielded a TGI of 30.3 µM.
Work on `CN(C)/C=C1\CCc2ccc([N+](=O)[O-])cc2C1=O` yielded a TGI greater than 100 µM.

The compounds below were run on CCRF-CEM leukemia (assay: NCI anticancer screen, dose series, 48 h).
In the case of `CCOC(=O)C(=O)/C(=C/n1c(=S)[nH]c2ccc([N+](=O)[O-])cc21)C(=O)OCC`, the TGI was greater than 100 µM.
In the case of `CCOC(=O)c1csc(NC(=O)CN(C)C)n1`, the TGI was greater than 100 µM.
With `CC1(CO)COC(C)(C)OC1` the TGI was greater than 100 µM.
For `CC12CP(=O)(c3ccccc3)CC1c1ccccc1C2c1ccccc1` (centres undefined), the TGI was 23.5 µM.
`CN(C)/C=C1\CCc2ccc([N+](=O)[O-])cc2C1=O` was tested, and the TGI was 52.4 µM.
